In US6756209B1, “7-Alkoxycoumarins as CYP2C9 substrates and activity assay” (SmithKline Beecham p.l.c., priority 1998, dated 2004):

COc1ccc2c(C(F)(F)F)c(CC(=O)O)c(=O)oc2c1
melting point: 198.5 to 200 °C
